In US7432056B2, “Biallelic markers derived from genomic regions carrying genes involved in arachidonic acid metabolism” (Serono Genetics Institute S.A., priority 1999, dated 2008):

Test: Hepatotoxicity monitored by serum alanine aminotransferase (ALT) level in a clinical study of zileuton
Type: in vivo, human
Text: In another preferred embodiment, the trait considered was a side effect upon drug treatment; the study involved two populations derived from a clinical study of the anti-asthmatic drug zileuton. The case population was composed of asthmatic individuals treated with Zileuton showing zileuton-associated hepatotoxicity monitored by the serum level of alanine aminotransferase (ALT) and the control population was composed of asthmatic individuals treated with zileuton and having no increased serum level of ALT. Inclusion criteria and association between the biallelic markers of the present invention and zileuton-associated hepatotoxicity are further described below in IV.E. Association of Biallelic Markers of the Invention with Hepatoxicity to Anti-Asthma Drug Zileuton and in Example 5, Association between Side Effects upon Treatment with the Anti-Asthmatic Drug Zileuton (Zyflo™) and the Biallelic Markers of the 12-lipoxygenase Gene.
Zileuton (Zyflo™) is an active inhibitor of 5-lipoxygenase, the enzyme that catalyzes the formation of leukotrienes from arachidonic acid, indicated for prophylaxis and chronic treatment of asthma. […] The ALT test (serum level of alanine aminotransferase) was used, which is considered the most sensitive indicator of liver injury.
The side effect examined in this study was the hepatotoxicity experienced by asthmatic individuals as a result of their treatment with Zileuton as part of a clinical study. […] Hepatotoxicity was monitored by measuring the serum levels of alanine aminotransferase (ALT), which is a sensitive indicator of liver cell damage.
As mentioned above, an association study is more informative if the case-control populations present extreme phenotypes. Therefore, the asthmatic individuals, which were selected for the side effect positive trait (ALT+), corresponded to 89 individuals that presented at least 3 times the upper limit of normal (ULN) level of ALT. On the other side, the asthmatic individuals that were selected for the side effect negative trait (ALT−) corresponded to 208 individuals that presented less than 1×ULN of ALT. ALT+ and ALT− populations corresponded to 4% and 35% respectively of the total asthmatic individuals that participated in this study.

## CC(c1cc2ccccc2s1)N(O)C(N)=O (stereo not shown) [Zileuton]
Asthmatic individuals treated with zileuton in a clinical study, serum ALT
  asthmatic individuals that did not experience Zileuton-associated ALT increase compared to ALT levels prior to zileuton intake: More than 90%
Asthmatic individuals treated with zileuton, 89 individuals
  ALT+ population (at least 3 times the upper limit of normal level of ALT) as share of total asthmatic individuals in the study: 4%
Asthmatic individuals treated with zileuton, 208 individuals
  ALT- population (less than 1xULN of ALT) as share of total asthmatic individuals in the study: 35%
Elevations of liver function tests during treatment, ALT test
  liver function abnormalities in zileuton-treated patients: A minority of zileuton-treated patients develop liver function abnormalities
